Assay results from patent publication US20110117171A1, “IMPLANTABLE BONE GRAFT MATERIALS” (AFFINERGY, INC., priority 2009, published 2011).
Ends that are not written are not given here. spacer = not defined here

Experiments:
human MSCs [1] = assay: Capture of MSCs from a mixed cell population with peptide on CELLECTION magnetic beads; assay type: cell-based; details: starting mixture 38% IM9, 56% U937, 4% MSC; FIG. 17C
Excerpt: In this experiment, biotinylated cell binding peptide, SEQ ID NO: 16, was attached to CELLECTION magnetic beads. The CELLECTION beads have streptavidin coupled to a magnetic particle through a DNA linker. Three different cell types, human MSCs, IM-9, and U937 cells were differentially labeled with […] dye and mixed in a ratio such that the MSCs represented ˜4% of the starting cell mixture (the percentage of each cell type in the starting mixture was 38% IM9, 56% U937, and 4% MSC). The cell binding peptide, SEQ ID NO: 16, was biotinylated as described herein at Example 2, as was a general cell binding peptide for use as a control peptide in the experiment. Magnetic particles with no peptide attached, as well as magnetic beads having attached either the cell binding peptide, SEQ ID NO: 16, or the control peptide were tested for their ability to capture human MSCs. The starting cell mixture was incubated with magnetic beads having either attached peptide or no peptide, the beads were washed, and the captured cells were released from the beads by DNase treatment. The cells were measured by flow cytometry histograms shown in 17A-17C. The magnetic beads without peptide captured little or no cells (FIG. 17B). The magnetic beads with attached cell binding peptide SEQ ID NO: 16 captured a cell population that was 96% MSCs (FIG. 17C).

[2] = test system: MSCs captured from bone marrow; assay: Adipocyte differentiation of captured MSCs (Oil Red O); assay type: cell-based, human; details: 21 days in adipocyte differentiation medium, FIG. 20 A/B
Method: Adipocyte differentiation. After capture of MSCs using cell binding peptide SEQ ID NO: 4 with the […] magnetic system according to Example 6, the ability of the captured cells to differentiate into an adipocyte lineage was examined. The MSCs present in the […] column eluants (see Example 6) were cultured for 21 days in complete medium (DMEM, 10% FBS, 100 units/mL penicillin, 100 μg/mL streptomycin, and 2 mM glutamine) supplemented with 0.5 mM isobutyl methylxanthine, 1 μM dexamethasone, 10 μM insulin, 200 μM indomethacin, and 1% antibiotic/antimycotic. Following the 21 day incubation, the cells were fixed in 4% paraformaldehyde in PBS for 15 minutes, washed in 60% isopropanol for 5 minutes, and stained with Oil Red O (SIGMA) for 10 minutes to determine the extent of adipogenesis (see FIG. 20, panels A (undifferentiated MSCs) and panel B (adipocyte differentiated MSCs)). The image of the adipose differentiated cells (FIG. 20, panel B) contains a larger magnification inset where the lipid vacuoles are clearly visible.

[3] = test system: MSCs captured from bone marrow aspirate; assay: Immunoreactivity of captured cells for surface antigens; assay type: cell-based, human; details: CD29(+), CD44(+), CD73(+), CD166(+), CD90(+), CD45(−), CD34(−)
Method: (§1) This experiment was performed to examine the ability of cell binding peptide SEQ ID NO: 4 to capture MSCs directly from bone marrow aspirate in comparison to two separate antibodies against the CD105 I antigen (CD105) and the MSCA-1 stem cell antigen (MSCA-1). This experiment employed biotinylated peptides with streptavidin-coated […] magnetic beads. The peptides were biotinylated as described herein at Example 2. […] For the antibody capture experiment, magnetic beads having covalently attached CD105 or MSCA-1 antibody were employed ([…]). Prior to incubation with the peptides and antibodies, bone marrow aspirate (BMA) was mixed with 5 volumes of 10 mM ammonium chloride for 1-2 min at room temperature to lyse red blood cells. The lysate was centrifuged for 5 min at 300×g and the supernatant discarded. The cell pellet was washed with wash buffer (PBS+0.5% bovine serum albumin+0.5 mM EDTA) and cells were resuspended in […] peptide at a concentration of 10^8 per mL. For peptide binding studies, the cell suspension was incubated with the biotinylated peptides for 30 min at 4° C. to allow for binding. After incubation, cells were spun down at 300×g for 5 min, and peptide solution was aspirated. Cells were then rinsed twice with wash buffer, with centrifugation between washes. […] Colony forming units (CFUs) were counted after 14 days in culture. […]

[4] = test system: MSCs captured from bone marrow; assay: Chondrocyte differentiation of captured MSCs (aggrecan immunostaining); assay type: cell-based, human; details: 24 days in CHONDRODIFF medium, FIG. 21
Method: Chondrocyte differentiation. To examine chondrocyte differentiation, the MSCs present in the […] column eluants (see Example 6) were pelleted by centrifugation at 150×g for 5 minutes. Cells were washed once with 1 ml MACS NH CHONDRODIFF Medium without disturbing the pellet. Cells were spun again and 1 mL CHONDRODIFF Medium was added to each pellet. Every third day, medium was aspirated and replaced with fresh pre-warmed medium. After 24 days in culture, cells exposed to CHONDRODIFF medium formed cartilage plugs or nodules, whereas control cells formed only loose or small nodules. Cells were washed once with PBS and fixed in neutral buffered formalin overnight. Sections were embedded in paraffin and sectioned at 5 microns. Sections were examined by hemotoxylin and eosin staining (data not shown). Sections were further examined by immunostaining for aggrecan, a major structural component of cartilage. In FIG. 21, sections from the periphery (panels A and B) or center (panels C and D) were incubated with an antibody against aggrecan (ABCAM) (panels B and D) or with secondary detection reagents only as a control (panels A and C), then counterstained with DAPI to reveal cell nuclei. […] Control images of captured cells grown in the absence of differentiation medium could not be taken due to the small and loose nature of nodules.

human ASCs = assay: Biotinylated peptide cell binding specificity by flow cytometry (Neutravidin-PE); details: 30 min at 4° C., FIG. 15
Excerpt: (§2) The synthetic biotinylated cell binding peptide SEQ ID NO: 4 was examined for its ability to specifically bind MSCs compared to a number of other cells types including adipose-derived mesenchymal stem cells (ASCs), dermal fibroblasts, rodent MSCs, red blood cells, monocytes, lymphocytes and granulocytes. The cell binding peptide was biotinylated as described herein at Example 2. Cultured cells of each type were either purchased (ASCs and dermal fibroblasts) or isolated from rodent bone marrow (rodent MSCs) or human blood. Cells were first harvested and resuspended at 10^6/mL in PBS+2% fetal bovine serum (FBS). An aliquot of cells (50 μL) was incubated in 50 μL of peptide solution (25 μM in PBS+FBS) for 30 min at 4° C. Cells were then washed twice in PBS+FBS with 300×g centrifugation for 5 min between washes. Fluorescently-tagged neutravidin (Neutravidin-PE from INVITROGEN) was then added to the cells to label biotinylated peptide bound to cells. Neutravidin-PE was diluted 1:250 from stock and applied at 50 μL to cells. Cells were then washed in PBS+FBS, and acquired on a BD […]. Peptide reactivity was then measured as percent positivity relative to Neutravidin-PE staining without the addition of biotinylated peptide.

human MSCs [5] = assay: as above; details: 30 min at 4° C., FIG. 15
Excerpt: as §2

[6] = test system: MSCs captured from bone marrow; assay: Osteoblast differentiation of captured MSCs (Alizarin Red S); assay type: cell-based, human; details: 14 days in osteoblast differentiation medium, FIG. 20 C/D
Method: Osteoblast differentiation. For osteogenic differentiation, the MSCs present in the […] column eluants (see Example 6) were cultured for 14 days in complete medium supplemented with 0.1 μM dexamethasone, 50 μM ascorbate-2-phosphate, 10 mM β-glycerophosphate, and 1% antibiotic/antimycotic. Calcium mineralization was measured by Alizarin Red S (SIGMA) staining to reveal mineralizing osteoblasts (see FIG. 20, panel C (undifferentiated MSCs) and panel D (osteoblast differentiated MSCs)).

[7] = test system: MSCs directly from bone marrow aspirate; assay: Capture of MSCs from bone marrow aspirate, colony forming units after 14 days; assay type: cell-based, human; details: streptavidin-coated MILTENYI beads, FIG. 18
Method: as §1

[8] = test system: human MSCs from bone marrow aspirate; assay: Capture of cultured MSCs with biotinylated peptide on […] streptavidin microbeads in LS columns; assay type: cell-based; details: 160,000 cultured human MSCs, peptide 20 μM on streptavidin microbeads, FIG. 16
Method: In this experiment the ability of the biotinylated cell binding peptide SEQ ID NO: 4 to capture human MSCs from a homogeneous cultured cell population was examined. The cell binding peptide SEQ ID NO: 4 was biotinylated as described herein at Example 2. The cell binding peptide SEQ ID NO: 4, and a non-binding control peptide, were added to separate 300 μl volumes of […] BIOTEC Streptavidin microbeads at a concentration of 20 μM. These beads are made from iron filings, coated with a dextran coating which is functionalized with streptavidin moieties. Peptide was incubated with beads for 45 min on ice. The 300 μl of peptide coated microbeads were added to pre-equilibrated LS columns outside of the magnetic field to evenly distribute the magnetic beads throughout the columns. Columns were then placed into a magnetic field, and excess peptide was washed away with buffer while retaining the peptide coated microbeads. Cultured and expanded human MSCs from bone marrow aspirate (160,000 cells; LONZA) were added to each LS column and allowed to pass through by gravity flow. Flowthrough was collected and cycled through the columns 5 times, after which the columns were washed with 5 ml buffer. […] The collected flowthrough with 5 ml wash and eluted cells were spun down, resuspended in a smaller volume, and counted by hemacytometer (see FIG. 16). […]

dermal fibroblasts = assay: Biotinylated peptide cell binding specificity by flow cytometry (Neutravidin-PE); set-up: species or system human; details: 30 min at 4° C., FIG. 15
Excerpt: as §2

| Sequence | MSCs in captured cell population (human MSCs [1]) [%] | adipogenesis of captured MSCs [2] | immunoreactivity of isolated cells compared with CD105 isolated cells [3] | aggrecan in nodules formed from captured MSCs [4] | binding to human ASCs (percent positivity relative to Neutravidin-PE staining) (human ASCs) | binding to human MSCs (percent positivity relative to Neutravidin-PE staining) (human MSCs [5]) | osteogenic differentiation of captured MSCs [6] | MSC capture (CFUs after 14 days in culture) [7] | capture of the MSCs [8] | binding to dermal fibroblasts (percent positivity relative to Neutravidin-PE staining) (dermal fibroblasts) |
| --- | --- | --- | --- | --- | --- | --- | --- | --- | --- | --- |
| SSFRFGPLGTWNYPSTDNAE (also: biotin, position not given here, on magnetic beads) [SEQ ID NO: 16, tested biotinylated on CELLECTION magnetic beads] | 96 | – | – | – | – | – | – | – | – | – |
| SSFWDVCQGDGTCYGGGSR (SSFWDVCQGDGTCYGGGSR-{spacer-biotin}; cysteine pairing not given here; reading uncertain; also: C-terminal spacer not given here) [SEQ ID NO: 4, tested biotinylated with a C-terminal spacer] | – | adipogenesis pathway remains intact | no changes were observed | aggrecan could be detected | high binding | high binding | osteogenic pathway remains intact | as efficient as capture by either of the CD105 or MSCA-1 antibodies | approximately 70% | high binding |
